In patent US20230295118A1 (EnhancedBio Inc., priority 2022, published 2023):

Assays:
[1] = test system: mantle cell lymphoma cell (Mino or JeKo-1); assay: Antiproliferative effect, MTS cell viability assay; assay type: cell-based; conditions: 72 h; for IC50: mantle cell lymphoma cell (Mino or JeKo-1), MTS assay, read-out: IC50 (anti-proliferation); for inhibition of cell proliferation of Mino cells: 0-1 μM, result in words
Outline: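 MTS read-out (formazan absorbance at 490 nm) after 72 h exposure of Mino cells to 0–1 μM compound (0.0001, 0.001, 0.01, 0.1, 1 μM). Palbociclib and abemaciclib served as positive controls.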

[2] = target: T1, CDK4 (Homo sapiens, UniProt P11802); assay: CDK4 degradation (DC50, Dmax); assay type: cell-based
T1 construct: endogenous in cells

[3] = target: T2, CDK6 (Homo sapiens, UniProt Q00534); assay: CDK6 degradation (DC50, Dmax); assay type: cell-based
T2 construct: endogenous in cells

[4] = test system: CDK4/6; assay: CDK4/6 degradation in A375 melanoma cells (FIG. 1); assay type: cell-based; conditions: result in words
[5] = test system: Mino xenograft tumor; assay: In vivo tumor inhibition efficacy, Mino xenograft; conditions: NOD/SCID mice, 20 mg/kg via oral gavage for 3 weeks; result in words
Method: Mino cells were obtained from American Type Culture Collection (ATCC, Manassas, VA). Cells were maintained in RPM 1640 (Life Technologies, Grand Island, NY) supplemented with 10% heat-inactivated fetal bovine serum (56° C. for 30 minutes), penicillin (10 000 units/mL; Sigma, St Louis, Mo), streptomycin (10 mg/mL; Sigma), gentamicin (50 mg/mL; Life Technologies), amphotericin B (25 mg/mL; Sigma), and L-glutamine (200 mM, 29.2 mg/mL; Life Technologies), culture, as previously described (29, 30). Mino cells (10 million) were subcutaneously implanted into the flank of NOD/SCID mice. When the average tumor volume reached approximately 300 cubic millimeters (mm^3), the following treatments were administered in cohorts of 5 mice for each treatment: vehicle alone, 20 mg/kg abemaciclib, 20 mg/kg Compound 90, or 20 mg/kg Compound 94 via oral gavage for 3 weeks. Tumor growth was monitored twice weekly by calipers and tumor volume was calculated using the equation: (½ (length×width^2)).

T2 sequence (Q00534 whole entry): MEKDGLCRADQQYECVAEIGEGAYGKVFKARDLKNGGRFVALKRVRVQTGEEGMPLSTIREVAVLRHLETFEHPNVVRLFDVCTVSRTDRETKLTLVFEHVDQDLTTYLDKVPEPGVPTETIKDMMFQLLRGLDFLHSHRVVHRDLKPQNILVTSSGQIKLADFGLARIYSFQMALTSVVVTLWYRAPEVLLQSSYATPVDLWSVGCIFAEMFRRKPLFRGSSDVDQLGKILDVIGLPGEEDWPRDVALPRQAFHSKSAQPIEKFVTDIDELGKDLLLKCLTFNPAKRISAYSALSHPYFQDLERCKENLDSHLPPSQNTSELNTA
T1 sequence (P11802 whole entry): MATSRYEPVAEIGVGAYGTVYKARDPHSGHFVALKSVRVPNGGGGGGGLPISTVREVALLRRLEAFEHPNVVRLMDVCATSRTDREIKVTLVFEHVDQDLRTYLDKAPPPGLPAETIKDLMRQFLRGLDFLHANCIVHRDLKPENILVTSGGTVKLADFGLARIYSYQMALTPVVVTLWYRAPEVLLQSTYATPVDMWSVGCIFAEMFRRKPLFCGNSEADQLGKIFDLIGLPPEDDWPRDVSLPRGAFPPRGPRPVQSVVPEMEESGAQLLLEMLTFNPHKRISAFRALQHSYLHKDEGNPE

| Structure (SMILES) | IC50 [1] [nM] | DC50 [2] [nM] | Dmax [2] [%] | DC50 [3] [nM] | Dmax [3] [%] | inhibition of cell proliferation of Mino cells [1] | CDK4/6 degradation [4] | Mino xenograft tumor growth [5] |
| --- | --- | --- | --- | --- | --- | --- | --- | --- |
| CC(=O)c1c(C)c2cnc(Nc3ccc(N4CCN(CCCNc5ccc6c(c5)C(=O)N(C5CCC(=O)NC5=O)C6=O)CC4)cn3)nc2n(C2CCCC2)c1=O (stereo not shown) [Compound 49, 5-((3-(4-(6-((6-acetyl-8-cyclopentyl-5-methyl-7-oxo-7,8-dihydropyrido[2,3-d]pyrimidin-2-yl)amino)pyridin-3-yl)piperazin-1-yl)propyl)amino)-2-(2,6-dioxopiperidin-3-yl) isoindoline-1,3-dione] | < 50 | < 50 | > 80 | < 50 | > 80 | dose-dependent inhibition of cell proliferation | dose-dependent CDK4/6 degradation |  |
| Cc1nc2c(F)cc(-c3nc(Nc4ccc(CN5CCN(CC6CN(c7ccc8c(c7)C(=O)N(C7CCC(=O)NC7=O)C8=O)C6)CC5)cn4)ncc3F)cc2n1C(C)C (stereo not shown) [Compound 94, 2-(2,6-dioxopiperidin-3-yl)-5-(3-((4-((6-((5-fluoro-4-(4-fluoro-1-isopropyl-2-methyl-1H-benzo[d]imidazol-6-yl)pyrimidin-2-yl)amino)pyridin-3-yl)methyl)piperazin-1-yl)methyl)azetidin-1-yl)isoindoline-1,3-dione] | < 50 | < 50 | > 80 | < 50 | > 80 | dose-dependent inhibition of cell proliferation |  | inhibiting Mino xenograft tumor growth |
| CC(=O)c1c(C)c2cnc(Nc3ccc(N4CCN(C(=O)CNc5ccc6c(c5)C(=O)N(C5CCC(=O)NC5=O)C6=O)CC4)cn3)nc2n(C2CCCC2)c1=O (stereo not shown) [Compound 104, 5-((2-(4-(6-((6-acetyl-8-cyclopentyl-5-methyl-7-oxo-7,8-dihydropyrido[2,3-d]pyrimidin-2-yl)amino)pyridin-3-yl)piperazin-1-yl)-2-oxoethyl)amino)-2-(2,6-dioxopiperidin-3-yl)isoindoline-1,3-dione] | < 50 | 50 to 200 | > 60 | 50 to 200 | > 60 | dose-dependent inhibition of cell proliferation | dose-dependent CDK4/6 degradation |  |
| Cc1nc2c(F)cc(-c3nc(Nc4ccc(CC5CCN(CC6CN(c7ccc8c(c7)CN(C7CCC(=O)NC7=O)C8=O)C6)CC5)cn4)ncc3F)cc2n1C(C)C (stereo not shown) [Compound 140, 3-(5-(3-((4-((6-((5-fluoro-4-(4-fluoro-1-isopropyl-2-methyl-1H-benzo[d]imidazol-6-yl)pyrimidin-2-yl)amino)pyridin-3-yl)methyl)piperidin-1-yl)methyl)azetidin-1-yl)-1-oxoisoindolin-2-yl)piperidine-2,6-dione] | < 50 | < 50 | > 80 | < 50 | > 80 |  |  |  |

The next lines start with results.

| IC50 [1] [nM] | DC50 [2] [nM] | Dmax [2] [%] | DC50 [3] [nM] | Dmax [3] [%] | Structure (SMILES) | inhibition of cell proliferation of Mino cells [1] | CDK4/6 degradation [4] | Mino xenograft tumor growth [5] |
| --- | --- | --- | --- | --- | --- | --- | --- | --- |
| < 50 | < 50 | > 80 | < 50 | > 80 | Cc1nc2c(F)cc(-c3nc(Nc4ccc(CN5CCN(CCCNc6ccc7c(c6)C(=O)N(C6CCC(=O)NC6=O)C7=O)CC5)cn4)ncc3F)cc2n1C(C)C (stereo not shown) [Compound 73, 2-(2,6-dioxopiperidin-3-yl)-5-((3-(4-((6-((5-fluoro-4-(4-fluoro-1-isopropyl-2-methyl-1H-benzo[d]imidazol-6-yl)pyrimidin-2-yl)amino)pyridin-3-yl)methyl)piperazin-1-yl)propyl)amino) isoindoline-1,3-dione] | dose-dependent inhibition of cell proliferation | dose-dependent CDK4/6 degradation |  |
| < 50 | < 50 | > 80 | < 50 | > 80 | Cc1nc2c(F)cc(-c3nc(Nc4ccc(CN5CCN(CCNc6ccc7c(c6)C(=O)N(C6CCC(=O)NC6=O)C7=O)CC5)cn4)ncc3F)cc2n1C(C)C (stereo not shown) [Compound 90, 2-(2,6-dioxopiperidin-3-yl)-5-((2-(4-((6-((5-fluoro-4-(4-fluoro-1-isopropyl-2-methyl-1H-benzo[d]imidazol-6-yl)pyrimidin-2-yl)amino)pyridin-3-yl)methyl)piperazin-1-yl)ethyl)amino) isoindoline-1,3-dione] | dose-dependent inhibition of cell proliferation |  | inhibiting Mino xenograft tumor growth |
